In paper PMC11606603, “The membrane domains of mammalian adenylyl cyclases are lipid receptors” (eLife, 2024):
Where “and” joins values, the source holds several entries; their conditions need not be identical. Identical values can stand only once.

How the values were obtained:
Format in all cases: biochemical
[1] = biological target: T1, mAC3 (Homo sapiens, UniProt O60266); assay: AC assay, Gsα-stimulated mAC3 in membranes from transfected HEK293 cells; details: for mAC3 activity [%] (100% = 300nM Gsα stimulation): fatty acid 20 µM, individual experiments; for Effect of lipid on 300 nM Gsα-stimulated mAC3: 20 µM, in words
T1 construct: Human mAC genes were from GenScript and fitted with a C-terminal FLAG-tag; FLAG (C); made in house; host or cells: HEK293, permanently transfected; membrane preparation
T1 sequence (O60266 whole entry): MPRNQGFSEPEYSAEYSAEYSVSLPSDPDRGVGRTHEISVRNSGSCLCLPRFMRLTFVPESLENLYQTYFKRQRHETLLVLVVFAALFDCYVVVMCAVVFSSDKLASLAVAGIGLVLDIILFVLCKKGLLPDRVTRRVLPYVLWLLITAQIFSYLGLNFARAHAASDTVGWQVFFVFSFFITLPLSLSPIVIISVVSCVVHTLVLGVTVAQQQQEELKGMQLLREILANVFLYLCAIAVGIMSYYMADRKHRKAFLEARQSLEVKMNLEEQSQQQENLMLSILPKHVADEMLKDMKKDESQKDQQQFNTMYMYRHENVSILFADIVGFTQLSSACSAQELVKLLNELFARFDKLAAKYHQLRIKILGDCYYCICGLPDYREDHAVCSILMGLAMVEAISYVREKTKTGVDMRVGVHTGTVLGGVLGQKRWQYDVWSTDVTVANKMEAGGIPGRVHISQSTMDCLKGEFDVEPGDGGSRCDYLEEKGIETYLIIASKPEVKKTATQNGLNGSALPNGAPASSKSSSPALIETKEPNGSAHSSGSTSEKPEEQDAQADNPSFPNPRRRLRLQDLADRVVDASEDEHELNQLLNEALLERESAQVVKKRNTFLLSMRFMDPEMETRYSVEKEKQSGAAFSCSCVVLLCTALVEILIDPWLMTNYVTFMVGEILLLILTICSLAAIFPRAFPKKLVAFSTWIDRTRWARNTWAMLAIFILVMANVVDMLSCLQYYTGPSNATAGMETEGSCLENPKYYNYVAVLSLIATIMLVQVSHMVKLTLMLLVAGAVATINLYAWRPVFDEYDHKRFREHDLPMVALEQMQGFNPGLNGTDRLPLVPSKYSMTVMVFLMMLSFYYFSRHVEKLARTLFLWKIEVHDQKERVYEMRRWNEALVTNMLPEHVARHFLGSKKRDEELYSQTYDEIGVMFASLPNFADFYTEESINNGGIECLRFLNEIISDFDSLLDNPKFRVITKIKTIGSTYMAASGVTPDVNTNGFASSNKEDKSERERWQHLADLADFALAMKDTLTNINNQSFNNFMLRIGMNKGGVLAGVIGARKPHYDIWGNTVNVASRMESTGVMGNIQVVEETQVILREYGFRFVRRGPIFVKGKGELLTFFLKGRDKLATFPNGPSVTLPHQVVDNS
T1 sequence (P63092 whole entry Q227L partner): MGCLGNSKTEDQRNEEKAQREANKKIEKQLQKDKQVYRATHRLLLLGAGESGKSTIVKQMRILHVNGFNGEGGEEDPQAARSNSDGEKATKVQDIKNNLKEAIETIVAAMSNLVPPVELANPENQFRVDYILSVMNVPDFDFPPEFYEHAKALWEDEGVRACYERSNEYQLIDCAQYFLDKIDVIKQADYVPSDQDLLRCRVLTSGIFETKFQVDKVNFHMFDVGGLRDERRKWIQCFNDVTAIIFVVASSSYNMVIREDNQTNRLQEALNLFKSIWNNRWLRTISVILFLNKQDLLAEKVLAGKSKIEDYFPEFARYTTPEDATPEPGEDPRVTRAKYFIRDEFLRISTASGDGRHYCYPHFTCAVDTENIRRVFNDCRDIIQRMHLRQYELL
Method: (§1) hAC sequences were from NCBI were: ADCY1: NM_021116.3; ADCY2: NM_020546.2; ADCY3: NM_004036.4; ADCY4: NM_001198568.2; ADCY5: NM_183357.2; ADCY6: NM_015270.4; ADCY7: NM_001114.4; ADCY8: NM_001115.2; ADCY9: NM_001116.3. Human mAC genes were from GenScript and fitted with a C-terminal FLAG-tag. […] The gene was synthesized by GenScript. HEK293 cells were maintained in Dulbeccos Modified Eagle Medium (DMEM) with 10% fetal bovine serum at 37°C and 5% CO2. Transfection with AC plasmids was with PolyJet (SignaGen, Frederick, MD, USA). Permanent cell lines were generated by selection for 7 days with 600 µg/ml G418 and maintained with 300 µg/ml For membrane preparation, cells were tyrpsinized, collected by centrifugation (3000 × g, 5 min) and lysed and homogenized in 20 mM HEPES, pH 7.5, 1 mM Ethylenediaminetetraacetic acid (EDTA), 2 mM MgCl2, 1 mM Dithiothreitol (DTT), one tablet of cOmplete, EDTA-free (per 50 ml) and 250 mM sucrose by 20 strokes in a potter homogenizer on ice. Debris was removed (5 min at 1000 × g, 0°C), membranes were collected at 100,000 × g, 60 min at 0°C, suspended and stored at −80°C in 20 mM MOPS, pH 7.5, 0.5 mM EDTA, 2 mM MgCl2. […] Three cerebral cortices were dissected and homogenized in 4.5 ml cold 48 mM Tris–HCl, pH 7.4, 12 mM MgC1_2, and 0.1 mM Ethylene glycol-bis(β-aminoethyl ether)-N,N,N′,N′-tetraacetic acid (EGTA) with a Polytron hand disperser (Kinematica AG, Switzerland). […] The pellet was washed once with 5 ml 1 mM KHCO3. The final suspension in 2 ml 1 mM KHCO3 was stored in aliquots at −80°C.
(§2) In a volume of 10 μl, AC activities were measured using 1 mM ATP, 2 mM MgCl2, 3 mM creatine phosphate, 60 μg/ml creatine kinase, and 50 mM MOPS pH 7.5. The cAMP assay kit from Cisbio (Codolet, France) was used for detection according to the supplier’s instructions. For each assay, a cAMP standard curve was established. EC50 and IC50 values were calculated by GraphPad Prism version 8.4.3 for Windows, GraphPad Software, San Diego, CA, USA, https://www.graphpad.com .

[2] = biological target: T2, mAC5 (Homo sapiens, UniProt O95622); assay: AC assay, Gsα-stimulated mAC5 in membranes from transfected HEK293 cells; details: 20µM fatty acid concentration
T2 construct: Human mAC genes were from GenScript and fitted with a C-terminal FLAG-tag; FLAG (C); made in house; host or cells: HEK293, permanently transfected; membrane preparation
Method: as §1, §2

[3] = biological target: T3, mAC7 (Homo sapiens, UniProt P51828); assay: AC assay, Gsα-stimulated mAC7 in membranes from transfected HEK293 cells; details: for mAC7 activity [%] (100% = 300nM Gsα stimulation); 20µM fatty acid concentration: Figure 5-figure supplement 2 left
T3 construct: Human mAC genes were from GenScript and fitted with a C-terminal FLAG-tag; FLAG (C); made in house; host or cells: HEK293, permanently transfected; membrane preparation
Method: as §1, §2

[4] = biological target: T4, mAC9 (Homo sapiens, UniProt O60503); assay: AC assay, Gsα-stimulated mAC9 in membranes from transfected HEK293 cells
T4 construct: Human mAC genes were from GenScript and fitted with a C-terminal FLAG-tag; FLAG (C); made in house; host or cells: HEK293, permanently transfected; membrane preparation
Method: as §1, §2

[5] = biological target: T5, mAC1 (Homo sapiens, UniProt Q08828); assay: AC assay, Gsα-stimulated mAC1 in membranes from transfected HEK293 cells; details: for mAC1 activity [%] (100% = 300nM Gsα stimulation); 20µM fatty acid concentration: single experiments
T5 construct: Human mAC genes were from GenScript and fitted with a C-terminal FLAG-tag; FLAG (C); made in house; host or cells: HEK293, permanently transfected; membrane preparation
Method: as §1, §2

[6] = biological target: T6, mAC2 (Homo sapiens, UniProt Q08462); assay: AC assay, Gsα-stimulated mAC2 in membranes from transfected HEK293 cells; details: Figure 5-figure supplement 1 left, 20 µM
T6 construct: Human mAC genes were from GenScript and fitted with a C-terminal FLAG-tag; FLAG (C); made in house; host or cells: HEK293, permanently transfected; membrane preparation
T6 sequence (Q08462 whole entry): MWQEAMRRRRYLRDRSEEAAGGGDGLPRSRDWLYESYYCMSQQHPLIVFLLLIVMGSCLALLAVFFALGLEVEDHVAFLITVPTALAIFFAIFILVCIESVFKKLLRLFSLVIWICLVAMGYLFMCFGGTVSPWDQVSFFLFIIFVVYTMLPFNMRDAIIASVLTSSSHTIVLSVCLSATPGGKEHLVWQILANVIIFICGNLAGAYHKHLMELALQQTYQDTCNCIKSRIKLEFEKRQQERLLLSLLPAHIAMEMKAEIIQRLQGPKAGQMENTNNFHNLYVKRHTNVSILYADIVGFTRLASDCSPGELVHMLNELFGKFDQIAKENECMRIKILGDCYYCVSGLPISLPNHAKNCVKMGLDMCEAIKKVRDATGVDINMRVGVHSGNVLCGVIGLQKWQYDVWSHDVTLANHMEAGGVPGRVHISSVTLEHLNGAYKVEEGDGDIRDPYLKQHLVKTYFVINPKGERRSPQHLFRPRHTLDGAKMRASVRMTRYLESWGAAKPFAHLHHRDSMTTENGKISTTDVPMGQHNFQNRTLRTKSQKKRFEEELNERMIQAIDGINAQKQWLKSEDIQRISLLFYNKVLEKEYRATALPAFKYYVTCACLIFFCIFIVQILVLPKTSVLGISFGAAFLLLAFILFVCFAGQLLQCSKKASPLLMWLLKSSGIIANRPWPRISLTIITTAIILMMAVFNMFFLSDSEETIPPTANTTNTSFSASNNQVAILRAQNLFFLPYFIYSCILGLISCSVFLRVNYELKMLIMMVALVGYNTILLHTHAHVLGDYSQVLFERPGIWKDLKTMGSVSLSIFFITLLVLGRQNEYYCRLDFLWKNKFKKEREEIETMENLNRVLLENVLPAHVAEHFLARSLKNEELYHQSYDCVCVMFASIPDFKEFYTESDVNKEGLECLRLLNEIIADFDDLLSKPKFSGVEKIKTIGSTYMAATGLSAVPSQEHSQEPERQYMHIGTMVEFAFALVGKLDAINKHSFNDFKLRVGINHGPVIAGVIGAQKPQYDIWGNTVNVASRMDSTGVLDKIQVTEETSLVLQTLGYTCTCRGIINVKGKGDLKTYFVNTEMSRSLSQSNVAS
T6 sequence (P63092 2-394 Q227L partner): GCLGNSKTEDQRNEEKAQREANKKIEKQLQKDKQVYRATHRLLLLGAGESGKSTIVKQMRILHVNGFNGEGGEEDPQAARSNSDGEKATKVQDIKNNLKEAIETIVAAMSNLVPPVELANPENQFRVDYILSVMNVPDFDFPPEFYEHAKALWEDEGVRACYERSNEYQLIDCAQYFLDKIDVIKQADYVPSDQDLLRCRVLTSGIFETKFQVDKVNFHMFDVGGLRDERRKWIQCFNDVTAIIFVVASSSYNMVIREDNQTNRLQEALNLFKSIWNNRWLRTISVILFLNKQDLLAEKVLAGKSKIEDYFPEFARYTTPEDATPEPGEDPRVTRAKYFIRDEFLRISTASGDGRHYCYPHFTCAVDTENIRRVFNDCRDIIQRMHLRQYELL
Method: as §1, §2

[7] = biological target: T7, mAC4 (Homo sapiens, UniProt Q8NFM4); assay: AC assay, Gsα-stimulated mAC4 in membranes from transfected HEK293 cells
T7 construct: Human mAC genes were from GenScript and fitted with a C-terminal FLAG-tag; FLAG (C); made in house; host or cells: HEK293, permanently transfected; membrane preparation
T7 sequence (Q8NFM4 1-1077): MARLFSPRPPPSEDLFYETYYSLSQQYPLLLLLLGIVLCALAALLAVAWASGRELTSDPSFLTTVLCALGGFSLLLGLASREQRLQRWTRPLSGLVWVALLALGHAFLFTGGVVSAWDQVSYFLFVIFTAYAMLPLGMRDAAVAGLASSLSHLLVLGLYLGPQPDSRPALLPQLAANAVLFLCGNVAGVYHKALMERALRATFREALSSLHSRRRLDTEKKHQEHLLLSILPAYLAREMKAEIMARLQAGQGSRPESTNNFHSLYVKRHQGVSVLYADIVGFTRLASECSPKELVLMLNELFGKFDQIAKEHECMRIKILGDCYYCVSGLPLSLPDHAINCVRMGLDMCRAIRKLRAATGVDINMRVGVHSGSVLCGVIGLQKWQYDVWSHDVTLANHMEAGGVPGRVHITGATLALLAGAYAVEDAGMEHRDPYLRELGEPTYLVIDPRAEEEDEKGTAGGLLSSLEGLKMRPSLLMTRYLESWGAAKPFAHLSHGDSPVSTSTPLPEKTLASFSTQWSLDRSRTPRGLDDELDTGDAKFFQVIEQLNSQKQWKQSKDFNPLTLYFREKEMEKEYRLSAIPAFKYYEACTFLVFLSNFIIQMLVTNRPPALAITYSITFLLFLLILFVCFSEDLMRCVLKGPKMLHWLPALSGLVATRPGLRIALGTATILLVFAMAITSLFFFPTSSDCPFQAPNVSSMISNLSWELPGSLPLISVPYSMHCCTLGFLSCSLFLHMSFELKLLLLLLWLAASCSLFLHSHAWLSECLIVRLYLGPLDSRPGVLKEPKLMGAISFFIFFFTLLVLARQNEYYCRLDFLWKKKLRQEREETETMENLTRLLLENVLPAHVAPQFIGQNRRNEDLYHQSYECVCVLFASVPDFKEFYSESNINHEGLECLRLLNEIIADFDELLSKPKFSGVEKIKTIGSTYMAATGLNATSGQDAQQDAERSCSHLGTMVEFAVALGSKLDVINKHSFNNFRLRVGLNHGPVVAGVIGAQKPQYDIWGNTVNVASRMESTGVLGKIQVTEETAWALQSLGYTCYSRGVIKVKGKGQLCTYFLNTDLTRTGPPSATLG
Method: as §1, §2

[8] = biological target: T8, mAC6 (Homo sapiens, UniProt O43306); assay: AC assay, Gsα-stimulated mAC6 in membranes from transfected HEK293 cells; details: 20µM fatty acid concentration
T8 construct: Human mAC genes were from GenScript and fitted with a C-terminal FLAG-tag; FLAG (C); made in house; host or cells: HEK293, permanently transfected; membrane preparation
T8 sequence (O43306 whole entry): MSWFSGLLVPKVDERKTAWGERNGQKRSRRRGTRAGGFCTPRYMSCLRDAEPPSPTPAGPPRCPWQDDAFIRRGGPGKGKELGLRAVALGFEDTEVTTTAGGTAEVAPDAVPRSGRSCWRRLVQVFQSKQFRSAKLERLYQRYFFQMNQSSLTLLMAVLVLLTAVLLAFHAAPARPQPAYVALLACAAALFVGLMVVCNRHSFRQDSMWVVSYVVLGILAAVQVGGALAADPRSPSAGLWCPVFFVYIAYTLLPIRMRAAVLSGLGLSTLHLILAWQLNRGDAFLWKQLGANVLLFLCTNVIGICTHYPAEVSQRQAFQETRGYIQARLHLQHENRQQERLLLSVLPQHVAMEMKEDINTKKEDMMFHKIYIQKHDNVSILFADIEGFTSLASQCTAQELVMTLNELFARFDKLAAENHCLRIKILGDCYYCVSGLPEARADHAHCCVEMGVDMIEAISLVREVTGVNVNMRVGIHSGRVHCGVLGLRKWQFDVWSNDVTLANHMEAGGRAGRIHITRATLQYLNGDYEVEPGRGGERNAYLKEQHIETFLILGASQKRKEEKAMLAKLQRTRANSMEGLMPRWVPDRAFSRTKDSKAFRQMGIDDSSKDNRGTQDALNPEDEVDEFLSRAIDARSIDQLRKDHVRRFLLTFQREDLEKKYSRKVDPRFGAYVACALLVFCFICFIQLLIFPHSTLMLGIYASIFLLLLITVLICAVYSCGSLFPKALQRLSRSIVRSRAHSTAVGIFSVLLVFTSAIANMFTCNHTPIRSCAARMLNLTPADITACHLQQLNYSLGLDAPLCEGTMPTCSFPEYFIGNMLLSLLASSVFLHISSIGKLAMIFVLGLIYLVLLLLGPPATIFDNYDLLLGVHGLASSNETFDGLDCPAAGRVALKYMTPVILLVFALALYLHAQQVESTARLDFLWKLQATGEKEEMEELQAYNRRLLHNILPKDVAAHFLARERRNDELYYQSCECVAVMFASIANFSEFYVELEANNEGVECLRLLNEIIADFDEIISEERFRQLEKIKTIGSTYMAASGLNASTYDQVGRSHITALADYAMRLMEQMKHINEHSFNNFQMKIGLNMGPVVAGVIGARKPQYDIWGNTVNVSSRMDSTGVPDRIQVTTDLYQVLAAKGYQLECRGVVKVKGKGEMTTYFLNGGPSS
Method: as §1, §2

[9] = 20 µM fatty acid, 300 nM Gsα, single experiments

Compound	mAC3 activity [%] (100% = 300nM Gsα stimulation) [1]	mAC5 activity [%] (100% = 300nM Gsα stimulation) [2]	mAC7 activity [%] (100% = 300nM Gsα stimulation); 20µM fatty acid concentration [3]	mAC9 activity [%] (100% = 300nM Gsα stimulation); 20µM fatty acid concentration [4, 9]	mAC1 activity [%] (100% = 300nM Gsα stimulation); 20µM fatty acid concentration [5]	Effect of lipid on 300 nM Gsα-stimulated mAC1 ([5]; 20 µM, in words)	mAC2 activity [%] (100% = 300nM Gsα stimulation); 20µM fatty acid concentration [6]	Effect of lipid on 300 nM Gsα-stimulated mAC3 [1]	Effect of lipid on 300 nM Gsα-stimulated mAC4 ([7]; 20 µM, in words)	mAC6 activity [%] (100% = 300nM Gsα stimulation) [8]	mAC4 activity [%] (100% = 300nM Gsα stimulation); 20µM fatty acid concentration [7, 9]	EC50 ([3]; enhancement of 300 nM Gsα-stimulated activity) [µM]	activity at 0.3 µM ([3]; read-out: mAC7 activity (%);(100% = Gsα stimulation) stimulated by 300nM Gsα, Elaidic acid 0.3 µM) [%]	mAC9 activity (%);(100% = Gsα stimulation) stimulated by 300nM Gsα ([4]; 3 µM fatty acid, 300 nM Gsα, single experiments)	mAC9 activity (%);(100% = Gsα stimulation) stimulated by 300nM Gsα ([4]; 6 µM fatty acid, 300 nM Gsα, single experiments)	EC50 ([4]; enhancement of 300 nM Gsα-stimulated activity, read-out: EC50 for mAC9) [µM]
CCCCCCCC/C=C\CCCCCCCC(=O)OC(CO)CO [2-Oleoylglycerol]	72%	96%	93%	131												
CC/C=C\C/C=C\C/C=C\C/C=C\C/C=C\CCCC(=O)O [EPA, Eicosapentaenoic ((5Z,8Z,11Z,14Z,17Z)-eicosapentaenoic) acid]	169% and 200% and 266% and 160%	101% and 83%	113% and 166%		99% and 107% and 86% and 87%	no effect	102% and 159%	less efficacious	no effect	112% and 108%						
CCCCCCCC/C=C/CCCCCCCC(=O)O [Elaidic acid, Elaidic ((9E)-octadecenoic) acid]	437% and 276% and 279% and 778% and 673%				72% and 100%		131%	efficient enhancers		101% and 97%	130% and 156% and 151%	9.7	100	154% and 261% and 166% and 178%	346% and 329% and 316% and 303% and 243%	5
